Laboratory results taken from patent US12440439B2, “Mesoporous sponge spicule and methods thereof” (Xiamen University, priority 2019, dated 2025).

Experiment: Transdermal penetration enhancement experiments in vitro (Franz diffusion transdermal device, tape peeling, microplate reader)
Assay type: in vitro ADME, pig
Settings: transdermal for 16 h
Description: Among them, delivery system groups of the second group and the third group are saturated 30% ethanol solutions of the Coumarin 6, and delivery volumes are […].
The aforementioned layers are divided into groups, soaked in 4 mL of a mixture of the phosphate buffer solution and methanol (a volume ratio is 1:1) to respectively extract the Coumarin 6 in a 1st layer of stratum corneum (SC1), 2nd-5th layers of stratum corneum (SC2), 6th-10th layers of stratum corneum (SC3), the epidermal layer (Epi), and the dermal layer (Der) at 200 r/min (revolutions per minutes (rpm)) at room temperature (e.g., 20-30° C.).

SMILES: CCN(CC)c1ccc2cc(-c3nc4ccccc4s3)c(=O)oc2c1 [Control, Coumarin 6]
- Content of the Coumarin 6 in SC1 (1st layer of stratum corneum): 0.005 ± 0.001 μg/1.77 cm^2
- Content of the Coumarin 6 in SC2 (2nd-5th layers of stratum corneum): 0.009 ± 0.002 μg/1.77 cm^2
- Content of the Coumarin 6 in SC3 (6th-10th layers of stratum corneum): 0.019 ± 0.003 μg/1.77 cm^2
- Content of the Coumarin 6, Total (all skin layers and receptor compartment): 0.199 ± 0.047 μg/1.77 cm^2
- Content of the Coumarin 6 in Der (dermal layer): 0.015 ± 0.011 μg/1.77 cm^2
- Content of the Coumarin 6 in Epi (epidermal layer): 0.021 ± 0.007 μg/1.77 cm^2
- Content of the Coumarin 6 in Rec (receptor compartment): 0.130 ± 0.043 μg/1.77 cm^2
